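The compound was tested at five concentrations on cells cultured in 96-well plates, with a 48-hour exposure period. Abbreviation: GI50, concentration required for 50% inhibition of growth. TGI is the concentration that stops growth completely.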
Legend:
Test in all cases: growth of human tumour cells (NCI), 48 h
[1] = tested on: MDA-MB-468 breast
[2] = tested on: PC-3 prostate
[3] = tested on: CAKI-1 renal
[4] = tested on: OVCAR-5 ovarian
[5] = tested on: SF-268 CNS
[6] = tested on: RPMI-8226 leukemia
[7] = tested on: MDA-MB-231 breast
[8] = tested on: OVCAR-3 ovarian
[9] = tested on: MOLT-4 leukemia
[10] = tested on: UACC-62 melanoma
[11] = tested on: 786-0 renal
[12] = tested on: NCI-H23 lung
[13] = tested on: BT-549 breast
[14] = tested on: HCC-2998 colon
[15] = tested on: A498 renal
[16] = tested on: HCT-116 colon
[17] = tested on: MCF7 breast
[18] = tested on: A549 NSCLC
[19] = tested on: SK-MEL-2 melanoma
[20] = tested on: HOP-92 NSCLC
[21] = tested on: RXF 393 renal
[22] = tested on: UACC-257 melanoma
[23] = tested on: SN12C renal
[24] = tested on: SNB-75 CNS
[25] = tested on: EKVX NSCLC
[26] = tested on: U251 CNS
[27] = tested on: SK-OV-3 ovarian
[28] = tested on: TK-10 renal
[29] = tested on: NCI-H460 lung
[30] = tested on: SNB-19 CNS
[31] = tested on: ACHN renal
[32] = tested on: HOP-62 NSCLC
[33] = tested on: HS 578T breast
[34] = tested on: KM12 colon
[35] = tested on: CCRF-CEM leukemia
[36] = tested on: OVCAR-8 ovarian
[37] = tested on: LOX IMVI melanoma
[38] = tested on: NCI-H522 lung
[39] = tested on: HT29 colon
[40] = tested on: HCT-15 colon
[41] = tested on: SF-539 CNS
[42] = tested on: M14 melanoma
[43] = tested on: SW-620 colon
[44] = tested on: NCI-H226 lung
[45] = tested on: SK-MEL-28 melanoma
[46] = tested on: UO-31 renal
[47] = tested on: IGROV1 ovarian
[48] = tested on: OVCAR-4 ovarian
[49] = tested on: MALME-3M melanoma
[50] = tested on: HL-60(TB) leukemia
[51] = tested on: DU-145 prostate
[52] = tested on: SR leukemia
[53] = tested on: K-562 leukemia
[54] = tested on: COLO 205 colon
[55] = tested on: T-47D breast
[56] = tested on: SF-295 CNS
[57] = tested on: MDA-MB-435
[58] = tested on: SK-MEL-5 melanoma

O=C(/C=C/c1ccc(Cl)cc1)c1nc2ccccc2n1Cc1ccc(F)cc1
GI50 [1]: 10.4 µM
TGI [1]: 28 µM
GI50 [2]: 14.3 µM
TGI [2]: 58.5 µM
GI50 [3]: 7.89 µM
TGI [3]: 43 µM
GI50 [4]: 17.5 µM
TGI [4]: 37.2 µM
GI50 [5]: 19.2 µM
TGI [5]: > 100 µM
GI50 [6]: 4.59 µM
TGI [6]: 53 µM
GI50 [7]: 16.4 µM
TGI [7]: 42 µM
GI50 [8]: 5.05 µM
TGI [8]: 22.2 µM
GI50 [9]: 4.15 µM
TGI [9]: > 100 µM
GI50 [10]: 13.2 µM
TGI [10]: 30.5 µM
GI50 [11]: 13.2 µM
TGI [11]: 28.9 µM
GI50 [12]: 14.4 µM
TGI [12]: 36.8 µM
GI50 [13]: 11.8 µM
TGI [13]: 30.4 µM
GI50 [14]: 14.7 µM
TGI [14]: 28.5 µM
GI50 [15]: > 100 µM
TGI [15]: > 100 µM
GI50 [16]: 11.8 µM
TGI [16]: 25.2 µM
GI50 [17]: 3.76 µM
TGI [17]: 76.4 µM
GI50 [18]: 22.9 µM
TGI [18]: > 100 µM
GI50 [19]: 14.5 µM
TGI [19]: 40.1 µM
GI50 [20]: 7.12 µM
TGI [20]: 79.7 µM
GI50 [21]: 7.71 µM
TGI [21]: 21.7 µM
GI50 [22]: 19.5 µM
TGI [22]: 86.8 µM
GI50 [23]: 18.7 µM
TGI [23]: 70.9 µM
GI50 [24]: 2.9 µM
TGI [24]: > 100 µM
GI50 [25]: 17.5 µM
TGI [25]: 44.9 µM
GI50 [26]: 10.3 µM
TGI [26]: 25.2 µM
GI50 [27]: 41.2 µM
TGI [27]: > 100 µM
GI50 [28]: 20 µM
TGI [28]: 75.8 µM
GI50 [29]: 11 µM
TGI [29]: 28.4 µM
GI50 [30]: 14.7 µM
TGI [30]: 33 µM
GI50 [31]: 17.7 µM
TGI [31]: 51.4 µM
GI50 [32]: 14.8 µM
TGI [32]: 36.8 µM
GI50 [33]: 19.8 µM
TGI [33]: > 100 µM
GI50 [34]: 11.9 µM
TGI [34]: 45.7 µM
GI50 [35]: 4.12 µM
TGI [35]: > 100 µM
GI50 [36]: 13.9 µM
TGI [36]: 42.5 µM
GI50 [37]: 4.97 µM
TGI [37]: 18.1 µM
GI50 [38]: 13.7 µM
TGI [38]: 31.4 µM
GI50 [39]: 13.1 µM
TGI [39]: 31.5 µM
GI50 [40]: 7.86 µM
TGI [40]: 23.4 µM
GI50 [41]: 14.1 µM
TGI [41]: 27.9 µM
GI50 [42]: 14.1 µM
TGI [42]: 32 µM
GI50 [43]: 8.58 µM
TGI [43]: 28.6 µM
GI50 [44]: 20.8 µM
TGI [44]: 62.1 µM
GI50 [45]: 14.9 µM
TGI [45]: 32.5 µM
GI50 [46]: 9.9 µM
TGI [46]: 22 µM
GI50 [47]: 14.5 µM
TGI [47]: 41.9 µM
GI50 [48]: 23.4 µM
TGI [48]: > 100 µM
GI50 [49]: 15.2 µM
TGI [49]: 34.3 µM
GI50 [50]: 9.53 µM
TGI [50]: 47.1 µM
GI50 [51]: 16.5 µM
TGI [51]: 63.3 µM
GI50 [52]: 5.12 µM
TGI [52]: > 100 µM
GI50 [53]: 6.18 µM
TGI [53]: > 100 µM
GI50 [54]: 14.8 µM
TGI [54]: 32.9 µM
GI50 [55]: 5.89 µM
TGI [55]: 33.9 µM
GI50 [56]: 14.3 µM
TGI [56]: 33.9 µM
GI50 [57]: 11.4 µM
TGI [57]: 29.4 µM
GI50 [58]: 15.2 µM
TGI [58]: 36.2 µM

— PubChem BioAssay (NCI)
